Data: ChEMBL document CHEMBL1201862, “PubChem BioAssay data set” (2004)
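These data come from cells grown in 96-well plates and exposed to compound for 48 hours at five concentrations. At the GI50, growth is halved.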 Calls of active or inactive are those of the source. No stated cut-off is given here; in the data, active = GI50 up to about 1.1 µM and inactive = higher.

What was measured:
Test in all cases: NCI-60 cell line screen, 48 h
[1] = test system: SK-MEL-28
[2] = test system: OVCAR-3
[3] = test system: CAKI-1
[4] = test system: LOX IMVI
[5] = test system: HCC 2998
[6] = test system: NCI-H226
[7] = test system: NCI-H23
[8] = test system: U-251
[9] = test system: SK-MEL-5
[10] = test system: SW-620
[11] = test system: MDA-MB-435
[12] = test system: SF-539
[13] = test system: SF-268
[14] = test system: HCT-116
[15] = test system: KM12
[16] = test system: HT-29
[17] = test system: SF-295
[18] = test system: MDA-MB-231
[19] = test system: T47D
[20] = test system: UO-31
[21] = test system: OVCAR-5
[22] = test system: HL-60
[23] = test system: HOP-62
[24] = test system: OVCAR-8
[25] = test system: A498
[26] = test system: RXF 393
[27] = test system: CCRF-CEM
[28] = test system: OVCAR-4
[29] = test system: IGROV-1
[30] = test system: Hs-578T
[31] = test system: DU-145
[32] = test system: PC-3
[33] = test system: K562
[34] = test system: M14
[35] = test system: SK-OV-3
[36] = test system: MOLT-4
[37] = test system: NCI-H522
[38] = test system: ACHN
[39] = test system: EKVX
[40] = test system: HOP-92
[41] = test system: UACC-257
[42] = test system: RPMI-8226
[43] = test system: NCI/ADR-RES
[44] = test system: SK-MEL-2
[45] = test system: NCI-H460
[46] = test system: HCT-15
[47] = test system: 786-0
[48] = test system: MCF7
[49] = test system: TK-10
[50] = test system: MDA-N
[51] = test system: SR
[52] = test system: BT-549
[53] = test system: UACC-62
[54] = test system: COLO 205
[55] = test system: SNB-19
[56] = test system: A549
[57] = test system: SNB-75
[58] = test system: Malme-3M
[59] = test system: SN12C

## CCCCC1Cc2ccccc2-c2n1c1ccccc1[n+]2C (stereo not given)
[1]
  GI50: 11.3 µM (inactive)
[2]
  GI50: 4.15 µM (inactive)
[3]
  GI50: > 100 µM (inactive)
[4]
  GI50: 10.4 µM (inactive)
[5]
  GI50: 5.47 µM (inactive)
[6]
  GI50: 22.3 µM (inactive)
[7]
  GI50: 2.17 µM (inactive)
[8]
  GI50: 3.1 µM (inactive)
[9]
  GI50: 4.54 µM (inactive)
[10]
  GI50: 23.7 µM (inactive)
[11]
  GI50: 10.3 µM (inactive)
[12]
  GI50: 27.8 µM (inactive)
[13]
  GI50: 11.4 µM (inactive)
[14]
  GI50: 17.6 µM (inactive)
[15]
  GI50: 9.55 µM (inactive)
[16]
  GI50: 10 µM (inactive)
[17]
  GI50: 6.92 µM (inactive)
[18]
  GI50: 22.2 µM (inactive)
[19]
  GI50: 0.959 µM (active)
[20]
  GI50: 66.7 µM (inactive)
[21]
  GI50: 42.9 µM (inactive)
[22]
  GI50: 3.99 µM (inactive)
[23]
  GI50: 24.9 µM (inactive)
[24]
  GI50: 21.9 µM (inactive)
[25]
  GI50: 23.6 µM (inactive)
[26]
  GI50: 13.3 µM (inactive)
[27]
  GI50: 10.9 µM (inactive)
[28]
  GI50: 24.5 µM (inactive)
[29]
  GI50: 17.3 µM (inactive)
[30]
  GI50: 12.1 µM (inactive)
[31]
  GI50: 33.7 µM (inactive)
[32]
  GI50: 5.93 µM (inactive)
[33]
  GI50: 2.49 µM (inactive)
[34]
  GI50: 23.3 µM (inactive)
[35]
  GI50: 35.9 µM (inactive)
[36]
  GI50: 12.3 µM (inactive)
[37]
  GI50: 3.87 µM (inactive)
[38]
  GI50: 37.9 µM (inactive)
[39]
  GI50: 25.9 µM (inactive)
[40]
  GI50: 20.4 µM (inactive)
[41]
  GI50: 1.87 µM (inactive)
[42]
  GI50: 1.94 µM (inactive)
[43]
  GI50: > 100 µM (inactive)
[44]
  GI50: 8.53 µM (inactive)
[45]
  GI50: 16.2 µM (inactive)
[46]
  GI50: 95.5 µM
[47]
  GI50: 38.2 µM (inactive)
[48]
  GI50: 8.77 µM (inactive)
[49]
  GI50: 22.8 µM (inactive)
[50]
  GI50: 12.3 µM (inactive)
[51]
  GI50: 7.67 µM (inactive)

## CCOC(=O)Cc1nc2nn(Cc3ccccc3)cc2c(=O)[nH]1
[1]
  GI50: > 100 µM (inactive)
[2]
  GI50: > 100 µM (inactive)
[3]
  GI50: > 100 µM (inactive)
[52]
  GI50: > 100 µM (inactive)
[4]
  GI50: > 100 µM (inactive)
[5]
  GI50: > 100 µM (inactive)
[6]
  GI50: > 100 µM (inactive)
[53]
  GI50: > 100 µM (inactive)
[7]
  GI50: > 100 µM (inactive)
[8]
  GI50: > 100 µM (inactive)
[9]
  GI50: > 100 µM (inactive)
[10]
  GI50: > 100 µM (inactive)
[11]
  GI50: > 100 µM (inactive)
[12]
  GI50: > 100 µM (inactive)
[13]
  GI50: > 100 µM (inactive)
[14]
  GI50: > 100 µM (inactive)
[15]
  GI50: > 100 µM (inactive)
[54]
  GI50: > 100 µM (inactive)
[16]
  GI50: > 100 µM (inactive)
[17]
  GI50: > 100 µM (inactive)
[18]
  GI50: > 100 µM (inactive)
[19]
  GI50: > 100 µM (inactive)
[20]
  GI50: > 100 µM (inactive)
[21]
  GI50: > 100 µM (inactive)
[55]
  GI50: > 100 µM (inactive)
[22]
  GI50: > 100 µM (inactive)
[23]
  GI50: > 100 µM (inactive)
[56]
  GI50: > 100 µM (inactive)
[24]
  GI50: > 100 µM (inactive)
[57]
  GI50: > 100 µM (inactive)
[25]
  GI50: 19.3 µM (inactive)
[26]
  GI50: > 100 µM (inactive)
[27]
  GI50: > 100 µM (inactive)
[28]
  GI50: > 100 µM (inactive)
[29]
  GI50: > 100 µM (inactive)
[31]
  GI50: > 100 µM (inactive)
[33]
  GI50: > 100 µM (inactive)
[35]
  GI50: > 100 µM (inactive)
[36]
  GI50: > 100 µM (inactive)
[38]
  GI50: > 100 µM (inactive)
[39]
  GI50: > 100 µM (inactive)
[41]
  GI50: > 100 µM (inactive)
[42]
  GI50: > 100 µM (inactive)
[58]
  GI50: > 100 µM (inactive)
[43]
  GI50: > 100 µM (inactive)
[45]
  GI50: > 100 µM (inactive)
[46]
  GI50: > 100 µM
[47]
  GI50: > 100 µM (inactive)
[48]
  GI50: > 100 µM (inactive)
[49]
  GI50: > 100 µM (inactive)
[50]
  GI50: > 100 µM (inactive)
[59]
  GI50: > 100 µM (inactive)

## C=C(Cl)C(Br)(CBr)CCC(Br)C(C)(C)Br (stereo not given)
[1]
  GI50: > 10 µM (inactive)
[2]
  GI50: > 10 µM (inactive)
[3]
  GI50: > 10 µM (inactive)
[52]
  GI50: > 10 µM (inactive)
[5]
  GI50: > 10 µM (inactive)
[6]
  GI50: > 10 µM (inactive)
[53]
  GI50: 4.11 µM (inactive)
[7]
  GI50: > 10 µM (inactive)
[8]
  GI50: 5.11 µM (inactive)
[9]
  GI50: > 10 µM (inactive)
[10]
  GI50: 2.7 µM (inactive)
[11]
  GI50: > 10 µM (inactive)
[12]
  GI50: 2.54 µM (inactive)
[13]
  GI50: 2.51 µM (inactive)
[14]
  GI50: 2.01 µM (inactive)
[15]
  GI50: 4.37 µM (inactive)
[54]
  GI50: 7.33 µM (inactive)
[16]
  GI50: 3.33 µM (inactive)
[17]
  GI50: > 10 µM (inactive)
[18]
  GI50: 1.62 µM (inactive)
[20]
  GI50: > 10 µM (inactive)
[21]
  GI50: > 10 µM (inactive)
[55]
  GI50: 4.25 µM (inactive)
[23]
  GI50: 6.67 µM (inactive)
[56]
  GI50: 6.87 µM (inactive)
[57]
  GI50: 4.7 µM (inactive)
[25]
  GI50: > 10 µM (inactive)
[26]
  GI50: 2.75 µM (inactive)
[27]
  GI50: 3.89 µM (inactive)
[28]
  GI50: 3.99 µM (inactive)
[29]
  GI50: 1.55 µM (inactive)
[31]
  GI50: > 10 µM (inactive)
[32]
  GI50: > 10 µM (inactive)
[33]
  GI50: 1.88 µM (inactive)
[34]
  GI50: > 10 µM (inactive)
[35]
  GI50: > 10 µM (inactive)
[36]
  GI50: 1.08 µM (active)
[37]
  GI50: > 10 µM (inactive)
[38]
  GI50: 9.16 µM (inactive)
[39]
  GI50: > 10 µM (inactive)
[40]
  GI50: 5.06 µM (inactive)
[42]
  GI50: 1.83 µM (inactive)
[47]
  GI50: 1.57 µM (inactive)
[48]
  GI50: 2.11 µM (inactive)
[49]
  GI50: > 10 µM (inactive)
[50]
  GI50: 7.57 µM (inactive)
[59]
  GI50: 7.73 µM (inactive)

## CC1(C)C2CCC(CN)(C2)C1O (stereo not given)
[1]
  GI50: > 100 µM (inactive)
[3]
  GI50: > 100 µM (inactive)
[52]
  GI50: > 100 µM (inactive)
[5]
  GI50: > 100 µM (inactive)
[6]
  GI50: > 100 µM (inactive)
[53]
  GI50: > 100 µM (inactive)
[7]
  GI50: > 100 µM (inactive)
[8]
  GI50: > 100 µM (inactive)
[10]
  GI50: > 100 µM (inactive)
[11]
  GI50: 65.6 µM (inactive)
[13]
  GI50: > 100 µM (inactive)
[15]
  GI50: > 100 µM (inactive)
[18]
  GI50: > 100 µM (inactive)
[20]
  GI50: > 100 µM (inactive)
[55]
  GI50: > 100 µM (inactive)
[22]
  GI50: > 100 µM (inactive)
[24]
  GI50: > 100 µM (inactive)
[57]
  GI50: > 100 µM (inactive)
[25]
  GI50: > 100 µM (inactive)
[27]
  GI50: > 100 µM (inactive)
[28]
  GI50: > 100 µM (inactive)
[33]
  GI50: > 100 µM (inactive)
[36]
  GI50: > 100 µM (inactive)
[38]
  GI50: > 100 µM (inactive)
[39]
  GI50: > 100 µM (inactive)
[40]
  GI50: > 100 µM (inactive)
[41]
  GI50: > 100 µM (inactive)
[42]
  GI50: > 100 µM (inactive)
[43]
  GI50: 80.2 µM (inactive)
[45]
  GI50: > 100 µM (inactive)
[46]
  GI50: > 100 µM
[49]
  GI50: > 100 µM (inactive)
[50]
  GI50: > 100 µM (inactive)
[59]
  GI50: > 100 µM (inactive)
[51]
  GI50: > 100 µM (inactive)
